This assay deals with T1, 5HT6 human recombinant receptor (Homo sapiens, UniProt P50406).
T1 construct: purchased Receptor Biology; host or cells: HEK-293 cell membranes
Description: Binding with serotonin receptor 5HT6 ([3H]-LSD radioligand, HEK-293 cell membranes). The note with it: [3H]-LSD 2.7 nM, HEK-293 membranes; for inhibition at 0.01 µM: 10 nM compound; for inhibition at 0.01 µM / inhibition at 0.1 µM: 60 min, 37° C.; for inhibition at 0.1 µM: 100 nM compound; for Ki: non-linear regression EBDA/LIGAND. The method, then:
Biological Assays Binding with Serotonin Receptor 5HT6
Cell membranes of HEK-293 cells expressing the 5HT6 human recombinant receptor were supplied by Receptor Biology. In said membranes the receptor concentration is 2.18 pmol/mg protein and the protein concentration is 9.17 mg/ml. The experimental protocol follows the method of B. L. Roth et al. [B. L. Roth, S. C. Craigo, M. S. Choudhary, A. Uluer, F. J. Monsma, Y. Shen, H. Y. Meltzer, D. R. Sibley: Binding of Typical and Atypical Antipsychotic Agents to 5-Hydroxytryptamine-6 and Hydroxytriptamine-7 Receptors. The Journal of Pharmacology and Experimental Therapeutics, 1994, 268, 1403] with slight changes. The commercial membrane is diluted (1:40 dilution) with the binding buffer: 50 mM Tris-HCl, 10 mM MgCl2, 0.5 mM EDTA (pH 7.4). The radioligand used is [^3H]-LSD at a concentration of 2.7 nM with a final volume of 200 μl. incubation is initiated by adding 100 μl of membrane suspension, (≈22.9 μg membrane protein), and is prolonged for 60 minutes at a temperature of 37° C. The incubation is ended by fast filtration in a Brandel Cell Harvester through fiber glass filters made by Schleicher & Schuell GF 3362 pretreated with a solution of polyethylenimine at 0.5%. The filters are washed three times with three milliliters of buffer Tris-HCl 50 mM pH 7.4. The filters are transferred to flasks and 5 ml of Ecoscint H liquid scintillation cocktail are added to each flask. The flasks are allowed to reach equilibrium for several hours before counting with a Wallac Winspectral 1414 scintillation counter. Non-specific binding is determined in the presence of 100 μM of serotonin. Tests were made in triplicate. The inhibition constants (Ki, nM) were calculated by non-linear regression analysis using the program EBDA/LIGAND [Munson and Rodbard, Analytical Biochemistry, 1980, 107, 220].

The source of these data is US7960568B2, “Heterocyclyl-substituted sulfonamides for the treatment of cognitive or food ingestion related disorders” (Laboratorios Del Dr. Esteve, S.A., priority 2007, dated 2011).

Several values for one entry are separate records, joined by “and”; a condition that tells them apart may be missing. Equal values may be shown once.

T1 sequence (P50406 whole entry): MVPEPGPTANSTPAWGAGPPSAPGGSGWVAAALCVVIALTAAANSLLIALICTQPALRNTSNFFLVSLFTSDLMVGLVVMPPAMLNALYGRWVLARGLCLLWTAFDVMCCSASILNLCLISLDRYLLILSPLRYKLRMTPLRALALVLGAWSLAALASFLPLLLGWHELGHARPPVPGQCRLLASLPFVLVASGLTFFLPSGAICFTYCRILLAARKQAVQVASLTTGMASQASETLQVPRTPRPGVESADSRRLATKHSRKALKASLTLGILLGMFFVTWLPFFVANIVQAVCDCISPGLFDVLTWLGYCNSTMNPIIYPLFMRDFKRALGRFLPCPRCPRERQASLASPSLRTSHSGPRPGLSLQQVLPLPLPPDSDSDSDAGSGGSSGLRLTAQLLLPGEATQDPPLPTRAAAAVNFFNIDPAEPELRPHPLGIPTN

The inhibition is the change of the read-out against control, counted positive when it falls. The Ki is a dissociation constant, usually derived from enzyme kinetics or from competition with a known ligand. For the molecule `CNCCc1c[nH]c2ccc(NS(=O)(=O)c3c(Cl)nc4sccn34)cc12` [Example 3, 6-Chloro-imidazo[2,1-b]thiazole-5-sulfonic acid [3-(2-methylamino-ethyl)-1H-indol-5-yl]-amide], the inhibition at 0.01 µM came to 47.3%; the inhibition at 0.1 µM is 71.8%; the inhibition constant Ki is 4.7 nM and 3.2 nM.

With `NCCc1c[nH]c2ccc(NS(=O)(=O)c3c(Cl)nc4sccn34)cc12` [Example 6, 6-Chloro-imidazo[2,1-b]thiazole-5-sulfonic acid [3-(2-amino-ethyl)-1H-indol-5-yl]-amide], the inhibition at 0.01 µM turned out to be 75.7%, the inhibition at 0.1 µM was 92.3% and the Ki came out at 3.6 ± 1.4 nM.

Regarding `CCNCCc1c[nH]c2ccc(NS(=O)(=O)c3sc4ccc(Cl)cc4c3C)cc12` [Example 1, 5-Chloro-3-methyl-benzo[b]thiophene-2-sulfonic acid [3-(2-ethylamino-ethyl)-1H-indol-5-yl]-amide], the inhibition at 0.01 µM came to 82.7%, the inhibition at 0.1 µM stood at 91.4% and the inhibitory constant (Ki) stood at 0.67 nM.

For `CCNCCc1c[nH]c2ccc(NS(=O)(=O)c3c(Cl)nc4sccn34)cc12` [Example 4, 6-Chloro-imidazo[2,1-b]thiazole-5-sulfonic acid [3-(2-ethylamino-ethyl)-1H-indol-5-yl]-amide], the inhibition at 0.01 µM amounted to 61.8%, the inhibition at 0.1 µM was 81.7% and the Ki amounted to 6.4 ± 1 nM.

Regarding `Cc1c(S(=O)(=O)Nc2ccc3[nH]cc(CCN)c3c2)sc2ccc(Cl)cc12` [Example 5, 5-Chloro-3-methyl-benzo[b]thiophene-2-sulfonic acid [3-(2-amino-ethyl)-1H-indol-5-yl]-amide], the inhibition at 0.01 µM came out at 63.5%, the inhibition at 0.1 µM turned out to be 85% and the Ki is 11.7 nM.

As for `CNCCc1c[nH]c2ccc(NS(=O)(=O)c3sc4ccc(Cl)cc4c3C)cc12` [Example 2, 5-Chloro-3-methyl-benzo[b]thiophene-2-sulfonic acid [3-(2-methylamino-ethyl)-1H-indol-5-yl]-amide], the inhibition at 0.01 µM worked out at 62.5%, the inhibition at 0.1 µM worked out at 80.3% and the inhibition constant (Ki) amounted to 2 nM.
